Data reported in the supplement of paper PMC12463676, “Small-molecule dissolution of stress granules by redox modulation benefits ALS models” (Nature Chemical Biology, 2025).

Legend:
[1] = compound: NC(=O)CCCCC1CCSS1 [lipoamide]; test: thermal stability z-score vs DMSO; higher = more thermally stabilized by treatment; conditions: HeLa, lipoamide concentration 100 µM
Procedure: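 Cellular thermal proteome profiling in HeLa cells. Cells were treated with 100 µM lipoamide for 1 h, with or without 1 mM arsenate for a further 1 h, then heated to ten temperatures (37-66.3 °C), and soluble protein was quantified by TMT mass spectrometry relative to 0.1% DMSO controls. The thermal stability score (sum of log2 fold changes minus the abundance score) was transformed to a z-score; mean of n = 3 experiments.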

[2] = compound: O=[As]([O-])(O)O.[K+] [potassium arsenate]; test: as above; conditions: HeLa; arsenate concentration 1 mM
Procedure: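 Cellular thermal proteome profiling in HeLa cells treated with 1 mM arsenate for 1 h (DMSO pretreatment), heated to ten temperatures (37-66.3 °C). Soluble protein was quantified by TMT mass spectrometry relative to DMSO controls; the thermal stability score was transformed to a z-score; mean of n = 3 experiments.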

[3] = arsenate co-treatment: 1 mM arsenate 1 h
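Also: each temperature applied for 3 min, abundance score taken as mean log2 fold change at the two lowest temperatures, z-score obtained by mean subtraction and division by SD.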

Sequence of UniProt Q9H7C9 (Q9H7C9 whole entry): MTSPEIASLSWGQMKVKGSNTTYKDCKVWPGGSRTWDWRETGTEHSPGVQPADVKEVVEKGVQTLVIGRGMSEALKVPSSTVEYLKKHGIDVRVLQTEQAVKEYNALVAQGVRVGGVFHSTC
Sequence of UniProt P50502 (P50502 whole entry): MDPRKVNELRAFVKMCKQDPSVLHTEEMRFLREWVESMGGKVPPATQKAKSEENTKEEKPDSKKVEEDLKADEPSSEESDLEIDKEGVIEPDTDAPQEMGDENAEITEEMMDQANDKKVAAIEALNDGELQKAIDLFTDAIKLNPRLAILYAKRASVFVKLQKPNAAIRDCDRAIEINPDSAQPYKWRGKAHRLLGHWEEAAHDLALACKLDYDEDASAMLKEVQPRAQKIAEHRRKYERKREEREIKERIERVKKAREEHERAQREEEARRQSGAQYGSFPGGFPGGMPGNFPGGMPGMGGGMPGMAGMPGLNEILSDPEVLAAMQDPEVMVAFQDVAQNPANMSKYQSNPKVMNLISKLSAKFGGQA
Sequence of UniProt Q9BWE0 (Q9BWE0 whole entry): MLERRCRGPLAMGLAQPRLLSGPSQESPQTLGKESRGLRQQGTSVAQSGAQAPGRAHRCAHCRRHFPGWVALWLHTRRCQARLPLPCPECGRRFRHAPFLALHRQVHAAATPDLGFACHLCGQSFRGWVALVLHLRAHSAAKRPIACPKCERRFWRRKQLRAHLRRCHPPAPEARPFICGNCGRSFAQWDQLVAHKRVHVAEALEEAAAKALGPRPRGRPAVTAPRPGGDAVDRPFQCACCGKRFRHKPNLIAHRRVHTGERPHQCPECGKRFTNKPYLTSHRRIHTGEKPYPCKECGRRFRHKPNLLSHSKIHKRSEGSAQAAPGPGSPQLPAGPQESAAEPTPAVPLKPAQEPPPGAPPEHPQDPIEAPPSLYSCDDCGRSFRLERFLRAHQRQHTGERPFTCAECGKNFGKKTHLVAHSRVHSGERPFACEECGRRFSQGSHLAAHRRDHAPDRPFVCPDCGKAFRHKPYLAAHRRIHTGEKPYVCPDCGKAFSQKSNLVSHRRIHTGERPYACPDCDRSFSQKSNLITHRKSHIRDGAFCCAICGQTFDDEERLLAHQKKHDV
Sequence of UniProt Q9UDY8 (Q9UDY8 whole entry): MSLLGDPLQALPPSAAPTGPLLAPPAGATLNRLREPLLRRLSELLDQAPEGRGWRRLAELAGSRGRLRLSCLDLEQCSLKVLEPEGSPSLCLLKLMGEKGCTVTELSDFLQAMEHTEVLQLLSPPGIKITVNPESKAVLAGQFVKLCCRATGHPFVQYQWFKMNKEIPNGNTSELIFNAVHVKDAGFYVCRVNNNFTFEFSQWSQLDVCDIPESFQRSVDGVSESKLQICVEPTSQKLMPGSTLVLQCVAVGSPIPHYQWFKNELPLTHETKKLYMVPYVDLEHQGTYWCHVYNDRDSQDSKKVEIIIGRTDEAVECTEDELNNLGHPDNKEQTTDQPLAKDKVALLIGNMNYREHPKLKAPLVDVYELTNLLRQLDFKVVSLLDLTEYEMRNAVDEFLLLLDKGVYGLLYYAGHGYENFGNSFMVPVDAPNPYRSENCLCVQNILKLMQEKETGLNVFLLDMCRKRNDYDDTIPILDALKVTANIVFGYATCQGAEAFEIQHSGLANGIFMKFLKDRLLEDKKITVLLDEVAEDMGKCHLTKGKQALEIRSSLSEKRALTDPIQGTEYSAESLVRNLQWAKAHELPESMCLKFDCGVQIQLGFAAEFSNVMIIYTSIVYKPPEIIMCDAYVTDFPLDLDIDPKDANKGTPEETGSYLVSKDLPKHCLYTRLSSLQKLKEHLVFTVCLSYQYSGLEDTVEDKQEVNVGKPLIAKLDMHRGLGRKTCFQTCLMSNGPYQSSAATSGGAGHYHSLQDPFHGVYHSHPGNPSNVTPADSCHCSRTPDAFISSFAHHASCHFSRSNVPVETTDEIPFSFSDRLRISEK
Sequence of UniProt Q9P2R6 (Q9P2R6 whole entry): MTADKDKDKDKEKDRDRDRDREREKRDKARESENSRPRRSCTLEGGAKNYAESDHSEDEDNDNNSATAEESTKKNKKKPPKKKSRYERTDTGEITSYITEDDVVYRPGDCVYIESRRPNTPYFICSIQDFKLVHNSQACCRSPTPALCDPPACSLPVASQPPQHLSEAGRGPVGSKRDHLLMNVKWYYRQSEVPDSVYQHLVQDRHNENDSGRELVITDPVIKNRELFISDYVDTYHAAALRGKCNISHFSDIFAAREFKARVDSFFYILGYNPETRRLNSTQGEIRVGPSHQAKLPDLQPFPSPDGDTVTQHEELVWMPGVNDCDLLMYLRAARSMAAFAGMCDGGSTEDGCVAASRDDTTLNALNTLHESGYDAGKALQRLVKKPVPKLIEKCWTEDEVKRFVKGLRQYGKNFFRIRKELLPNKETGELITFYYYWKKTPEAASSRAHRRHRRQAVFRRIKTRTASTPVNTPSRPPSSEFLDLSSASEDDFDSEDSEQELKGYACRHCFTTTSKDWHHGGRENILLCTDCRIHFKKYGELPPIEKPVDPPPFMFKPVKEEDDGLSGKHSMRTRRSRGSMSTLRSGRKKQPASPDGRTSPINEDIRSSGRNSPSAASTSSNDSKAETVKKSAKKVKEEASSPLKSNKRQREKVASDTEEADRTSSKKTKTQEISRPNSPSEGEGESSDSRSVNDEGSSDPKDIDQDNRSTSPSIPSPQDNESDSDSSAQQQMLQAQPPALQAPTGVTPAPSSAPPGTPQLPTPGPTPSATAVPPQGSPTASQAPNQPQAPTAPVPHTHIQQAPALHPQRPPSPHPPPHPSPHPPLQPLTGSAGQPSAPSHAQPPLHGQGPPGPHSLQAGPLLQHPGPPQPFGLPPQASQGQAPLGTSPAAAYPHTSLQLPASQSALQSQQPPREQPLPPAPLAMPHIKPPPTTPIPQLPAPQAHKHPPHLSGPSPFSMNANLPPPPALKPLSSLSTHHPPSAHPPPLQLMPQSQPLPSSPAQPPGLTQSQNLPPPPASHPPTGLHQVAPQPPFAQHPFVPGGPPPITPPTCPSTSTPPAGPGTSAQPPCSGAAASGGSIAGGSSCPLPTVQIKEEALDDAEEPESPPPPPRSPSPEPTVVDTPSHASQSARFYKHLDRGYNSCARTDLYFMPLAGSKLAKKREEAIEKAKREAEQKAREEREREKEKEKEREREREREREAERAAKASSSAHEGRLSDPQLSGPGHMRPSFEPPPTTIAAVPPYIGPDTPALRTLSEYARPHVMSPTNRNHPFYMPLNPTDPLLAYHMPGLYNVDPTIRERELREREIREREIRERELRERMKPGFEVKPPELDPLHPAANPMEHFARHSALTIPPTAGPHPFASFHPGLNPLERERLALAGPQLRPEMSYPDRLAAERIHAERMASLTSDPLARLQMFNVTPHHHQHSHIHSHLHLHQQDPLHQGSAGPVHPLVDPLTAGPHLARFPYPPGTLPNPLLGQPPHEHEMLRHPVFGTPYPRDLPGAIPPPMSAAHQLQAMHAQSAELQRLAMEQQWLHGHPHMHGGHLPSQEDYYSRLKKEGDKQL
Sequence of UniProt Q8TF74 (Q8TF74 whole entry): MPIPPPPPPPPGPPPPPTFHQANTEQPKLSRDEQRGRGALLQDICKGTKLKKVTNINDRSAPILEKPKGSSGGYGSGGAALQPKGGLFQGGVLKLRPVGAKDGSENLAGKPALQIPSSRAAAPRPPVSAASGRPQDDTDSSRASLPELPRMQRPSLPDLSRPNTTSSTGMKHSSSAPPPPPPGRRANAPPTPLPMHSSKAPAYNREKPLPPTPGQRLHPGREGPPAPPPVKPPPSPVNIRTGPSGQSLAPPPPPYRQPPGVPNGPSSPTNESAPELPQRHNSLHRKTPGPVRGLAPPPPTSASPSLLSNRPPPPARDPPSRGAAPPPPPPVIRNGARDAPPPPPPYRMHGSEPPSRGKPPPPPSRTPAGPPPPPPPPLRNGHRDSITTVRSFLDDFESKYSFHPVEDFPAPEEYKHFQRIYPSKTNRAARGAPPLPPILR
Sequence of UniProt Q00839 (Q00839 whole entry): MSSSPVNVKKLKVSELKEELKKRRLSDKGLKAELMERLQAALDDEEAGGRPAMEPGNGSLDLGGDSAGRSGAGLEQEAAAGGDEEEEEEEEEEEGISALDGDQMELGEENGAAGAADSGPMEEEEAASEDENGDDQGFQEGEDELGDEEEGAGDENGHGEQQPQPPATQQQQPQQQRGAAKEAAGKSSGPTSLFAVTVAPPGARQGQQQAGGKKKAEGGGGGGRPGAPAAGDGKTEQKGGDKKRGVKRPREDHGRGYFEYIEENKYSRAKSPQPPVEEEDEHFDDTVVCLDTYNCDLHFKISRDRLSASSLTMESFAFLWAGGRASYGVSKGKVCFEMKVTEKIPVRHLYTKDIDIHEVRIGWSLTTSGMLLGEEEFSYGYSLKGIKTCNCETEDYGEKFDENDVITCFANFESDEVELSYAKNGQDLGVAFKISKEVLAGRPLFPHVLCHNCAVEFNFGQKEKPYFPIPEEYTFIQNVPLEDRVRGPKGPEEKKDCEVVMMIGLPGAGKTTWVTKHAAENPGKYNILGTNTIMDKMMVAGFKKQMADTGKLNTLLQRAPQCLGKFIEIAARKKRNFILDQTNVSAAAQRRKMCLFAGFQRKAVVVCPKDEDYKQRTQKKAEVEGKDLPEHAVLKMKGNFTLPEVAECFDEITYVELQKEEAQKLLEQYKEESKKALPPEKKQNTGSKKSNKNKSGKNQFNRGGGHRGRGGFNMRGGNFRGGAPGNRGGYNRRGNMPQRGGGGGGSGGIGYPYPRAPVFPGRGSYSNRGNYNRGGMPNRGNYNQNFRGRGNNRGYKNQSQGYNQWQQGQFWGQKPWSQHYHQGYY
Sequence of UniProt Q92530 (Q92530 whole entry): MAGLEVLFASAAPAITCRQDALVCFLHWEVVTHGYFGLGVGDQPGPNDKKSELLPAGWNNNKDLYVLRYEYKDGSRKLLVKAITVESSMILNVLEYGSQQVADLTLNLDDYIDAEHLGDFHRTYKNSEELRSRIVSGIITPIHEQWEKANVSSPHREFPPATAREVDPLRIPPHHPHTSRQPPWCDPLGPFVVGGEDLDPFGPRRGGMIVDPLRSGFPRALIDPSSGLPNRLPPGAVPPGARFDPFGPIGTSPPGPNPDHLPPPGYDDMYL

Target | thermal stability z-score [1, 3] | thermal stability z-score ([1]; arsenate co-treatment: none) | thermal stability z-score [2]
KCTD15 (UniProt Q96SI1) | -0.377 | -0.174 | -0.89
SHMT1 (UniProt P34896) | 0.374 | -0.0345 | 0.764
CD55 (UniProt P08174) | 0.266 | 0.169 | 0.446
GBAS (UniProt O75323) | 0.0991 | 0.0331 | -0.187
ZFP36L2 (UniProt P47974) | -0.198 | 0.12 | -0.0646
FIBP (UniProt O43427) | 0.453 | 0.0779 | 0.125
KIF1BP (UniProt Q96EK5) | 0.371 | -0.0427 | 0.587
UNC45A (UniProt Q9H3U1) | -0.649 | -0.167 | 0.158
GALK2 (UniProt Q01415) | 0.547 | -0.155 | -0.778
SCYL1 (UniProt Q96KG9) | -0.269 | -0.198 | -0.278
PRPF4 (UniProt O43172) | 1.82 | 1.6 | 0.565
ITFG1 (UniProt Q8TB96) | -0.794 | -0.597 | 0.61
MP68 (UniProt P56378) | 0.962 | 0.921 | 1.15
WIPF2 (UniProt Q8TF74) | 0.726 | 0.703 | 0.0475
GATB (UniProt O75879) | 0.0276 | 0.115 | 0.0266
EIF2AK2 (UniProt P19525) | -0.0654 | -0.252 | -1.01
UBE2V2 (UniProt Q15819) | 0.177 | -0.304 | -0.0935
SNAP29 (UniProt O95721) | -0.254 | 0.547 | 0.554
RAB24 (UniProt Q969Q5) | 0.205 | 0.12 | -0.143
ALKBH6 (UniProt Q3KRA9) | 0.205 | 0.0821 | 3.15
GANAB (UniProt Q14697) | -3.91 | -3.13 | 0.696
RC3H1 (UniProt Q5TC82) | -0.195 | -0.0428 | -0.351
MCAT (UniProt Q8IVS2) | 0.313 | 0.162 | 1.17
RERE (UniProt Q9P2R6) | 0.0956 | -0.103 | 0.00489

Target | thermal stability z-score [1, 3] | thermal stability z-score ([1]; arsenate co-treatment: none) | thermal stability z-score [2]
LAMB3 (UniProt Q13751) | -1.92 | -1.59 | 0.108
UBE2S (UniProt Q16763) | 0.862 | 0.191 | 0.161
CWC15 (UniProt Q9P013) | 1.65 | 0.526 | -0.193
GPX1 (UniProt P07203) | 0.0953 | 0.0517 | -0.087
PSMA6 (UniProt P60900) | 0.746 | 0.795 | 0.345
NNMT (UniProt P40261) | 1.79 | 1.62 | 0.0978
ZNF830 (UniProt Q96NB3) | 1.38 | 0.482 | -0.642
REPIN1 (UniProt Q9BWE0) | -0.686 | -0.309 | 0.53
FZD2 (UniProt Q14332) | -1.45 | -1.01 | 0.0158
GNAO1 (UniProt P09471) | 0.151 | -0.44 | -0.313
ARV1 (UniProt Q9H2C2) | 0.292 | 0.473 | -0.894
SAE1 (UniProt Q9UBE0) | -0.694 | -0.826 | -0.458
TAP1 (UniProt Q03518) | -0.509 | -0.0614 | 1.47
EXOSC7 (UniProt Q15024) | 0.482 | 0.0621 | -1.11
LANCL2 (UniProt Q9NS86) | -1.13 | -0.454 | -0.393
DMXL1 (UniProt Q9Y485) | 0.485 | 0.00841 | -0.0177
LUZP1 (UniProt Q86V48) | -0.424 | -0.079 | -0.191
SCAMP4 (UniProt Q969E2) | 0.196 | 0.377 | 0.0173
UROS (UniProt P10746) | -0.306 | -0.445 | -2.43
PPP2R2A (UniProt P63151) | 0.294 | 0.531 | -0.49
PEPD (UniProt P12955) | 0.359 | 0.112 | -0.732
LRCH4 (UniProt O75427) | 0.0394 | -0.101 | -0.13
CCDC88A (UniProt Q3V6T2) | 1.49 | 0.586 | 1.3
ST13 (UniProt P50502) | 0.433 | 0.404 | 0.962

Target | thermal stability z-score [1, 3] | thermal stability z-score ([1]; arsenate co-treatment: none) | thermal stability z-score [2]
TP53I3 (UniProt Q53FA7) | 0.135 | -0.155 | -0.359
RPL5 (UniProt P46777) | 0.172 | 0.132 | -0.481
CDK13 (UniProt Q14004) | 0.155 | -0.0381 | -0.0661
PSMF1 (UniProt Q92530) | -0.319 | -0.0828 | -0.0444
ZCRB1 (UniProt Q8TBF4) | 0.506 | 0.194 | 0.155
SDAD1 (UniProt Q9NVU7) | 0.0663 | -0.0856 | -0.469
AAMDC (UniProt Q9H7C9) | 1.03 | 0.608 | 0.207
GSTCD (UniProt Q8NEC7) | 0.682 | 0.492 | -0.0694
ZNF593 (UniProt O00488) | 4.3 | 2.19 | -6.67
TRIP6 (UniProt Q15654) | -1.35 | -0.966 | -5.81
ADAR (UniProt P55265) | 0.419 | 0.448 | -1.48
PPP3CA (UniProt Q08209) | 1.25 | 0.912 | 0.275
ATP11B (UniProt Q9Y2G3) | 0.0989 | -0.588 | -1.03
CCDC167 (UniProt Q9P0B6) | -0.711 | -1.16 | 0.0429
ME1 (UniProt P48163) | 0.408 | 0.575 | -0.207
MALT1 (UniProt Q9UDY8) | -0.539 | 0.249 | 0.37
REPS1 (UniProt Q96D71) | -0.864 | -0.26 | 0.157
AIMP1 (UniProt Q12904) | 0.288 | 0.163 | 0.717
RPL10A (UniProt P62906) | 0.849 | 0.534 | 0.27
HNRNPU (UniProt Q00839) | 0.572 | 1.39 | 0.509
PKP3 (UniProt Q9Y446) | -0.116 | 0.603 | 0.191
AP4E1 (UniProt Q9UPM8) | -0.117 | -0.092 | -0.068
DIS3L (UniProt Q8TF46) | 0.0339 | 0.0425 | 0.0192
